Data reported in US20240261224A1, “FORMULATION OF A PAN-JAK INHIBITOR” (KINASET THERAPEUTICS, INC., priority 2022, published 2024).
Where two headings read alike, the source gives them in different places.

Experiment: Phase 1 Part 2 plasma pharmacokinetics (mild asthma)
Type: in vivo, human
Settings: for AUC0-12h / AUC(0-t) / AUC(0-inf) / AUC / Cmax: human, plasma, inhaled
Description: Day 10 pharmacokinetic parameters for Parts 2 and 3 of Phase I are summarized below in Table 28. Part 2 involved the administration of 4 different dose regimens, to subjects with mild asthma naïve to ICS therapy, over a 10-day period. Each separate cohort comprised 6 subjects receiving active treatment with 2 receiving matching placebo. Blood samples were collected to enable the measurement of Compound I concentrations in plasma. The resultant data was used to determine the PK parameters at Day 10 representing the Day on which the final dose was received.

## Cn1c(=O)n([C@H]2CCCN(C(=O)CC#N)C2)c2nc(-c3cnn4ccccc34)ccc21 [Compound I, (S)-3-(3-(1-methyl-2-oxo-5-(pyrazolo[1,5-a]pyridine-3-yl)-1H-imidazo[4,5-b]pyridine-3(2H)-yl)piperidin-1-yl)-3-oxopropanenitrile]
8 mg BID, Day 10
  AUC0-24 hours Max: 1,140,247 pg · h/ml
  AUC0-24 hours Min: 309,050 pg · h/ml
  AUC0-last non-zero Max: 1,369,314 pg · h/ml
  AUC0-last non-zero Min: 358,137 pg · h/ml
  AUC0-∞ Max: 1,369,630 pg · h/ml
  AUC0-∞ Min: 358,998 pg · h/ml
  AUCover dosing interval Max: 830,085 pg · h/ml
  AUCover dosing interval Min: 260,305 pg · h/ml
  Cmax Max: 91,500 pg/ml
  Cmax Min: 45,400 pg/ml
  Ctrough Geometric mean: 17,666 pg/ml
  Ctrough Max: 40,600 pg/ml
  Ctrough Mean: 21,835 pg/ml
  Ctrough Min: 6,090 pg/ml
0.6 mg, 0.6 mg QD, Day 10, read-out: AUC0-12 hours Geometric mean
  AUC0-12h: 14.9 ng·h/mL
0.6 mg, 0.6 mg QD, Day 10, read-out: AUC0-12 hours Mean
  AUC0-12h: 16.1 ng·h/mL
0.6 mg, 0.6 mg QD, Day 10, read-out: AUC0-24 hours Geometric mean
  AUC(0-t): 20.3 ng·h/mL
0.6 mg, 0.6 mg QD, Day 10, read-out: AUC0-24 hours Mean
  AUC(0-t): 22.5 ng·h/mL
0.6 mg, 0.6 mg QD, Day 10, read-out: AUC0-last non-zero Geometric mean
  AUC(0-t): 23.4 ng·h/mL
0.6 mg, 0.6 mg QD, Day 10, read-out: AUC0-last non-zero Mean
  AUC(0-t): 26.7 ng·h/mL
0.6 mg, 0.6 mg QD, Day 10, read-out: AUC0-∞ Geometric mean
  AUC(0-inf): 24.3 ng·h/mL
0.6 mg, 0.6 mg QD, Day 10, read-out: AUC0-∞ Mean
  AUC(0-inf): 28 ng·h/mL
0.6 mg, 0.6 mg QD, Day 10, read-out: AUCover dosing interval Geometric mean
  AUC: 20.3 ng·h/mL
0.6 mg, 0.6 mg QD, Day 10, read-out: AUCover dosing interval Mean
  AUC: 22.5 ng·h/mL
0.6 mg, 0.6 mg QD, Day 10, read-out: Cmax Geometric mean
  Cmax: 1.86 ng/mL
0.6 mg, 0.6 mg QD, Day 10, read-out: Cmax Mean
  Cmax: 1.97 ng/mL
2 mg, 2 mg QD, Day 10, read-out: AUC0-12 hours Geometric mean
  AUC0-12h: 51.9 ng·h/mL
2 mg, 2 mg QD, Day 10, read-out: AUC0-12 hours Mean
  AUC0-12h: 55.2 ng·h/mL
2 mg, 2 mg QD, Day 10, read-out: AUC0-24 hours Geometric mean
  AUC(0-t): 71.9 ng·h/mL
2 mg, 2 mg QD, Day 10, read-out: AUC0-24 hours Mean
  AUC(0-t): 76.4 ng·h/mL
2 mg, 2 mg QD, Day 10, read-out: AUC0-last non-zero Geometric mean
  AUC(0-t): 82.2 ng·h/mL
2 mg, 2 mg QD, Day 10, read-out: AUC0-last non-zero Mean
  AUC(0-t): 87.4 ng·h/mL
2 mg, 2 mg QD, Day 10, read-out: AUC0-∞ Geometric mean
  AUC(0-inf): 83.9 ng·h/mL
2 mg, 2 mg QD, Day 10, read-out: AUC0-∞ Mean
  AUC(0-inf): 89.2 ng·h/mL
2 mg, 2 mg QD, Day 10, read-out: AUCover dosing interval Geometric mean
  AUC: 71.9 ng·h/mL
2 mg, 2 mg QD, Day 10, read-out: AUCover dosing interval Mean
  AUC: 76.4 ng·h/mL
2 mg, 2 mg QD, Day 10, read-out: Cmax Geometric mean
  Cmax: 6.19 ng/mL
2 mg, 2 mg QD, Day 10, read-out: Cmax Mean
  Cmax: 6.46 ng/mL
4 mg, 4 mg BID, Day 10, read-out: AUC0-12 hours Geometric mean
  AUC0-12h: 194 ng·h/mL
4 mg, 4 mg BID, Day 10, read-out: AUC0-12 hours Mean
  AUC0-12h: 237 ng·h/mL
4 mg, 4 mg BID, Day 10, read-out: AUC0-24 hours Geometric mean
  AUC(0-t): 241 ng·h/mL
4 mg, 4 mg BID, Day 10, read-out: AUC0-24 hours Mean
  AUC(0-t): 299 ng·h/mL
4 mg, 4 mg BID, Day 10, read-out: AUC0-last non-zero Geometric mean
  AUC(0-t): 278 ng·h/mL
4 mg, 4 mg BID, Day 10, read-out: AUC0-last non-zero Mean
  AUC(0-t): 355 ng·h/mL
4 mg, 4 mg BID, Day 10, read-out: AUC0-∞ Geometric mean
  AUC(0-inf): 282 ng·h/mL
4 mg, 4 mg BID, Day 10, read-out: AUC0-∞ Mean
  AUC(0-inf): 359 ng·h/mL
4 mg, 4 mg BID, Day 10, read-out: AUCover dosing interval Geometric mean
  AUC: 194 ng·h/mL
4 mg, 4 mg BID, Day 10, read-out: AUCover dosing interval Mean
  AUC: 237 ng·h/mL
4 mg, 4 mg BID, Day 10, read-out: Cmax Geometric mean
  Cmax: 26.8 ng/mL
4 mg, 4 mg BID, Day 10, read-out: Cmax Mean
  Cmax: 31.5 ng/mL
8 mg, 8 mg BID, Day 10, read-out: AUC0-12 hours Geometric mean
  AUC0-12h: 418 ng·h/mL
8 mg, 8 mg BID, Day 10, read-out: AUC0-12 hours Mean
  AUC0-12h: 458 ng·h/mL
8 mg, 8 mg BID, Day 10, read-out: AUC0-24 hours Geometric mean
  AUC(0-t): 545 ng·h/mL
8 mg, 8 mg BID, Day 10, read-out: AUC0-24 hours Mean
  AUC(0-t): 612 ng·h/mL
8 mg, 8 mg BID, Day 10, read-out: AUC0-last non-zero Geometric mean
  AUC(0-t): 662 ng·h/mL
8 mg, 8 mg BID, Day 10, read-out: AUC0-last non-zero Mean
  AUC(0-t): 745 ng·h/mL
8 mg, 8 mg BID, Day 10, read-out: AUC0-∞ Geometric mean
  AUC(0-inf): 664 ng·h/mL
8 mg, 8 mg BID, Day 10, read-out: AUC0-∞ Mean
  AUC(0-inf): 747 ng·h/mL
8 mg, 8 mg BID, Day 10, read-out: AUCover dosing interval Geometric mean
  AUC: 418 ng·h/mL
8 mg, 8 mg BID, Day 10, read-out: AUCover dosing interval Mean
  AUC: 458 ng·h/mL
8 mg, 8 mg BID, Day 10, read-out: Cmax Geometric mean
  Cmax: 57.7 ng/mL
8 mg, 8 mg BID, Day 10, read-out: Cmax Mean
  Cmax: 60.4 ng/mL
